“And” between values parts separate entries of the source, which are not always exact repeats. Equal entries are not always repeated. Toxic doses and inconclusive results are not listed.
Test system: BDF1 mice, P388 leukemia ip, median survival T/C
Experiment: NCI In Vivo Anticancer Drug Screen. Data for tumor model P388 Leukemia (intraperitoneal) in B6D2F1 (BDF1) mice
Settings: endpoint: median survival time, higher = longer survival
How it was run: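 Transplantable tumour in mice; compound vs vehicle dosing; survival scored; ratio of treated to control reported.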

[1] = dose: 0.39 mg/kg/injection, schedule: Q01DX009 (ip), vehicle: water
[2] = dose: 0.78 mg/kg/injection, schedule: Q01DX009 (ip), vehicle: water
[3] = dose: 1.56 mg/kg/injection, schedule: Q01DX009 (ip), vehicle: water
[4] = dose: 3.12 mg/kg/injection, schedule: Q01DX009 (ip), vehicle: water
[5] = dose: 6.25 mg/kg/injection, schedule: Q01DX009 (ip), vehicle: water
[6] = dose: 12.5 mg/kg/injection, schedule: Q01DX009 (ip), vehicle: water
[7] = dose: 50.0 mg/kg/injection, schedule: Q01DX009 (ip), vehicle: water
[8] = dose: 100.0 mg/kg/injection, schedule: Q01DX009 (ip), vehicle: Klucel (hydroxypropylcellulose) (HPC)
[9] = dose: 100.0 mg/kg/injection, schedule: Q04DX003 (ip), vehicle: Klucel (hydroxypropylcellulose) (HPC)
[10] = dose: 200.0 mg/kg/injection, schedule: Q01DX009 (ip), vehicle: Klucel (hydroxypropylcellulose) (HPC)
[11] = dose: 200.0 mg/kg/injection, schedule: Q04DX003 (ip), vehicle: Klucel (hydroxypropylcellulose) (HPC)
[12] = dose: 400.0 mg/kg/injection, schedule: Q01DX009 (ip), vehicle: Klucel (hydroxypropylcellulose) (HPC)
[13] = dose: 400.0 mg/kg/injection, schedule: Q04DX003 (ip), vehicle: Klucel (hydroxypropylcellulose) (HPC)
[14] = dose: 25.0 mg/kg/injection, schedule: Q04DX003 (ip), vehicle: water
[15] = dose: 50.0 mg/kg/injection, schedule: Q01DX009 (ip), vehicle: saline with Tween-80
[16] = dose: 100.0 mg/kg/injection, schedule: Q01DX009 (ip), vehicle: saline with Tween-80

COc1ccc(NC(=O)N(CCCl)N=O)cc1OC
T/C (dose: 0.29 mg/kg/injection, schedule: Q04DX003 (ip), vehicle: saline with Tween-80): 107 % of control | T/C (dose: 0.44 mg/kg/injection, schedule: Q04DX003 (ip), vehicle: saline with Tween-80): 110 % of control | T/C (dose: 0.66 mg/kg/injection, schedule: Q04DX003 (ip), vehicle: saline with Tween-80): 122 % of control | T/C (dose: 0.79 mg/kg/injection, schedule: Q01DX009 (ip), vehicle: saline with Tween-80): 174 % of control | T/C (dose: 1.19 mg/kg/injection, schedule: Q01DX009 (ip), vehicle: saline with Tween-80): 185 % of control | T/C (dose: 1.78 mg/kg/injection, schedule: Q01DX009 (ip), vehicle: saline with Tween-80): 186 % of control | T/C (dose: 2.2 mg/kg/injection, schedule: Q04DX003 (ip), vehicle: saline with Tween-80): 172 % of control | T/C (dose: 2.66 mg/kg/injection, schedule: Q01DX009 (ip), vehicle: saline with Tween-80): 161 % of control and 194 % of control | T/C (dose: 3.3 mg/kg/injection, schedule: Q04DX003 (ip), vehicle: saline with Tween-80): 190 % of control | T/C (dose: 4.0 mg/kg/injection, schedule: Q01DX009 (ip), vehicle: saline with Tween-80): 169 % of control | T/C (dose: 5.0 mg/kg/injection, schedule: Q04DX003 (ip), vehicle: saline with Tween-80): 186 % of control | T/C (dose: 5.5 mg/kg/injection, schedule: Q04DX003 (ip), vehicle: saline with Tween-80): 218 % of control | T/C (dose: 6.0 mg/kg/injection, schedule: Q01DX009 (ip), vehicle: saline with Tween-80): 169 % of control | T/C (dose: 7.5 mg/kg/injection, schedule: Q04DX003 (ip), vehicle: saline with Tween-80): 209 % of control | T/C (dose: 8.3 mg/kg/injection, schedule: Q04DX003 (ip), vehicle: saline with Tween-80): 209 % of control | T/C (dose: 9.0 mg/kg/injection, schedule: Q01DX009 (ip), vehicle: saline with Tween-80): 260 % of control | T/C (dose: 12.5 mg/kg/injection, schedule: Q04DX003 (ip), vehicle: saline with Tween-80): 236 % of control | T/C (dose: 18.7 mg/kg/injection, schedule: Q04DX003 (ip), vehicle: saline with Tween-80): 281 % of control

O=C(O)CCC1(c2ccccc2)CCCC1=O (stereo not drawn)
T/C [1]: 95 % of control | T/C (dose: 0.39 mg/kg/injection, schedule: Q04DX003 (ip), vehicle: water): 104 % of control | T/C [2]: 87 % of control and 122 % of control | T/C (dose: 0.78 mg/kg/injection, schedule: Q04DX003 (ip), vehicle: water): 100 % of control | T/C [3]: 101 % of control and 103 % of control | T/C (dose: 1.56 mg/kg/injection, schedule: Q04DX003 (ip), vehicle: water): 97 % of control | T/C [4]: 88 % of control | T/C (dose: 3.12 mg/kg/injection, schedule: Q04DX003 (ip), vehicle: water): 97 % of control | T/C [5]: 87 % of control and 101 % of control | T/C [6]: 97 % of control | T/C [7]: 87 % of control

CSc1cccc(NC(=O)Oc2cc(C)c(Cl)c(C)c2Cl)c1
T/C (dose: 6.25 mg/kg/injection, schedule: Q01DX009 (ip), vehicle: DMSO): 117 % of control | T/C (dose: 12.5 mg/kg/injection, schedule: Q01DX009 (ip), vehicle: DMSO): 102 % of control

COC(=O)C1OC1c1ccccc1 (stereo not drawn)
T/C [8]: 100 % of control | T/C [9]: 95 % of control | T/C [10]: 100 % of control | T/C [11]: 95 % of control | T/C [12]: 100 % of control | T/C [13]: 95 % of control

O=[N+]([O-])C(Br)(c1ccccc1)S(=O)(=O)Cc1ccccc1 (stereo not drawn)
T/C [9]: 104 % of control | T/C [11]: 108 % of control | T/C [13]: 108 % of control

NN=C1CCC(=NN)CC1
T/C [6]: 100 % of control | T/C (dose: 25.0 mg/kg/injection, schedule: Q01DX009 (ip), vehicle: water): 105 % of control and 109 % of control | T/C [14]: 90 % of control and 104 % of control | T/C [7]: 103 % of control and 113 % of control and 114 % of control | T/C (dose: 50.0 mg/kg/injection, schedule: Q04DX003 (ip), vehicle: water): 95 % of control and 114 % of control and 118 % of control | T/C (dose: 100.0 mg/kg/injection, schedule: Q04DX003 (ip), vehicle: water): 102 % of control and 111 % of control | T/C (dose: 200.0 mg/kg/injection, schedule: Q04DX003 (ip), vehicle: water): 92 % of control

NC(CSC(c1ccccc1)(c1ccccc1)c1ccc(F)cc1)C(=O)O (stereo not drawn)
T/C (dose: 2.9 mg/kg/injection, schedule: Q01DX009 (ip), vehicle: Klucel (hydroxypropylcellulose) (HPC)): 107 % of control | T/C (dose: 4.3 mg/kg/injection, schedule: Q01DX009 (ip), vehicle: Klucel (hydroxypropylcellulose) (HPC)): 123 % of control | T/C (dose: 12.5 mg/kg/injection, schedule: Q01DX009 (ip), vehicle: Klucel (hydroxypropylcellulose) (HPC)): 170 % of control | T/C (dose: 23.0 mg/kg/injection, schedule: Q01DX009 (ip), vehicle: Klucel (hydroxypropylcellulose) (HPC)): 216 % of control | T/C (dose: 25.0 mg/kg/injection, schedule: Q01DX009 (ip), vehicle: Klucel (hydroxypropylcellulose) (HPC)): 227 % of control | T/C (dose: 25.0 mg/kg/injection, schedule: Q04DX003 (ip), vehicle: Klucel (hydroxypropylcellulose) (HPC)): 170 % of control | T/C (dose: 35.0 mg/kg/injection, schedule: Q01DX009 (ip), vehicle: Klucel (hydroxypropylcellulose) (HPC)): 222 % of control | T/C (dose: 50.0 mg/kg/injection, schedule: Q01DX009 (ip), vehicle: Klucel (hydroxypropylcellulose) (HPC)): 255 % of control and 104 % of control and 209 % of control | T/C (dose: 50.0 mg/kg/injection, schedule: Q04DX003 (ip), vehicle: Klucel (hydroxypropylcellulose) (HPC)): 180 % of control | T/C (dose: 75.0 mg/kg/injection, schedule: Q01DX009 (ip), vehicle: Klucel (hydroxypropylcellulose) (HPC)): 90 % of control | T/C [8]: 194 % of control | T/C [9]: 175 % of control and 185 % of control | T/C [10]: 100 % of control | T/C [11]: 285 % of control and 205 % of control

Cc1cc(NC(=O)c2ccc(Cl)cc2)ccc1Cl
T/C (dose: 100.0 mg/kg/injection, schedule: Q01DX001 (ip), vehicle: saline with Tween-80): 100 % of control | T/C (dose: 200.0 mg/kg/injection, schedule: Q01DX001 (ip), vehicle: saline with Tween-80): 86 % of control | T/C (dose: 400.0 mg/kg/injection, schedule: Q01DX001 (ip), vehicle: saline with Tween-80): 95 % of control

NC(=O)N/N=C/c1cccs1
T/C (dose: 25.0 mg/kg/injection, schedule: Q01DX009 (ip), vehicle: saline with Tween-80): 97 % of control | T/C [15]: 104 % of control

CC(=O)Oc1c(Br)cc(Br)cc1-c1ccccc1
T/C [15]: 92 % of control | T/C [16]: 92 % of control | T/C (dose: 200.0 mg/kg/injection, schedule: Q01DX009 (ip), vehicle: saline with Tween-80): 92 % of control | T/C (dose: 400.0 mg/kg/injection, schedule: Q01DX009 (ip), vehicle: saline with Tween-80): 90 % of control

C[n+]1cccc2c3ccccc3c(-c3ccccc3)cc21
T/C [1]: 101 % of control | T/C [2]: 90 % of control and 106 % of control | T/C [3]: 89 % of control and 94 % of control and 103 % of control | T/C [4]: 87 % of control and 93 % of control and 116 % of control | T/C [5]: 98 % of control and 104 % of control and 122 % of control | T/C (dose: 6.25 mg/kg/injection, schedule: Q04DX003 (ip), vehicle: water): 90 % of control | T/C [6]: 100 % of control and 111 % of control | T/C (dose: 12.5 mg/kg/injection, schedule: Q04DX003 (ip), vehicle: water): 103 % of control | T/C [14]: 112 % of control | T/C [7]: 113 % of control

O=c1oc2ccccc2cc1-c1csc(/C=N/N2CCOCC2)n1
T/C [15]: 113 % of control | T/C [16]: 104 % of control

C=CCN(CC=C)c1ccccc1
T/C [8]: 104 % of control | T/C [9]: 100 % of control | T/C [10]: 109 % of control | T/C [11]: 100 % of control | T/C [12]: 122 % of control | T/C [13]: 112 % of control

— PubChem BioAssay AID328 (DTP/NCI, 2004)
